Measured values as given in patent publication US20120264735A1 (priority 2009, published 2012).
pIC50: −log10 of the molar value.

Molecular target: T1, c-Met kinase (recombinant c-Met) (Homo sapiens, UniProt P08581)
T1 construct: 0.27 nM recombinant c-Met
Experiment: In vitro kinase assay I (homogeneous time-resolved fluorescence tyrosine kinase assay)
Type: biochemical
How it was run: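 Biotinylated peptide (0.5 μM) phosphorylated by 0.2 nM recombinant c-Met with 50 μM MgATP, 60 min at room temperature, pH 7.4, 5% DMSO. EDTA stop; HTRF read with Eu-anti-phosphotyrosine antibody and streptavidin-APC. IC50 from 4-parameter logistic fit.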

T1 sequence (P08581 25-1390): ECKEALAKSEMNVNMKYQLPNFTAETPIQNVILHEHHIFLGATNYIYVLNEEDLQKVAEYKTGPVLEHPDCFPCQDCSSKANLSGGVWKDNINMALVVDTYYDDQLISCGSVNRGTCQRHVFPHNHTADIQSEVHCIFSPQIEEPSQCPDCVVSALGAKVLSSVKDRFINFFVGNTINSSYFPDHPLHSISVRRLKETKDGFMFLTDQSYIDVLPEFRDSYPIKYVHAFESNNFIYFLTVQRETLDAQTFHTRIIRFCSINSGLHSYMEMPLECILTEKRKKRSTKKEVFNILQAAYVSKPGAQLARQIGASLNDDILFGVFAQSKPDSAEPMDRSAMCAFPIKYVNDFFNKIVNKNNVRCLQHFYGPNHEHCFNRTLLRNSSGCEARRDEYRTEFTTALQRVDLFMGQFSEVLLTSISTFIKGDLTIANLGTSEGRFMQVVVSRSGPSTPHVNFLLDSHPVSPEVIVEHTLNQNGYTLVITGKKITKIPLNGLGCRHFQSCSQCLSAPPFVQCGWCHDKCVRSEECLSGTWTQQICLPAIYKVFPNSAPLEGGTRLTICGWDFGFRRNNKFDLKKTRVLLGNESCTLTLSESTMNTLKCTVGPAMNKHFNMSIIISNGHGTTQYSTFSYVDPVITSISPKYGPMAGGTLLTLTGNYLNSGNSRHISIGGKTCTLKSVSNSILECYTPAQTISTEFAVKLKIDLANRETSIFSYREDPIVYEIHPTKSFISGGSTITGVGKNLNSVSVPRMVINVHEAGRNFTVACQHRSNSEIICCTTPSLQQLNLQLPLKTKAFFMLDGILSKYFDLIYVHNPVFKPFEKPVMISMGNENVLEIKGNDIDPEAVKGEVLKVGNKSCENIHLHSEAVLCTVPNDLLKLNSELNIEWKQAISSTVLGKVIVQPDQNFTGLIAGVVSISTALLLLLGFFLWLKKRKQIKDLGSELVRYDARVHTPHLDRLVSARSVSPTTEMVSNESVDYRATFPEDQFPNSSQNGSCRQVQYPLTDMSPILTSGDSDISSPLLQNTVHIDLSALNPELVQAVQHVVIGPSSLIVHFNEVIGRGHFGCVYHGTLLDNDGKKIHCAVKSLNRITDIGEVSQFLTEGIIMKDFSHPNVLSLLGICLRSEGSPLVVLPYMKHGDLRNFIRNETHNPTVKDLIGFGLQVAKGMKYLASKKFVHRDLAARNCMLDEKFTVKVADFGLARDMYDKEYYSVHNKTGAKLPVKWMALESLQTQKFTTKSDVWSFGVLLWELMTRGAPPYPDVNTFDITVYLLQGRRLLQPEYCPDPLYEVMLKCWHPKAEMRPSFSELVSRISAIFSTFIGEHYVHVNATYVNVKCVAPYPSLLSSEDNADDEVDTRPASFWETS

| Compound | pIC50 |
| --- | --- |
| COCCOC(=O)Nc1cccc(C(C)c2nn(-c3cnn(C)c3)ccc2=O)c1 (single isomer, unassigned) [Example 653, 2-methoxyethyl (3-{(1R or S)-1-[1-(1-methyl-1H-pyrazol-4-yl)-4-oxo-1,4-dihydropyridazin-3-yl]ethyl}phenyl)carbamate] | 6.00 to 7.00 |
| CCOc1cnc(-c2cccc(C(F)c3nn(-c4cnn(C)c4)ccc3=O)c2)nc1 (single isomer, unassigned) [Example 655, 3-[(S or R)-[3-(5-ethoxypyrimidin-2-yl)phenyl](fluoro)methyl]-1-(1-methyl-1H-pyrazol-4-yl)pyridazin-4(1H)-one] | 6.00 to 7.00 |
| CCn1cnc(-c2cccc(C(C)c3nn(-c4cnn(C)c4)ccc3=O)c2)n1 (single isomer, unassigned) [Example 680, 3-{(1S or R)-1-[3-(1-ethyl-1H-1,2,4-triazol-3-yl)phenyl]ethyl}-1-(1-methyl-1H-pyrazol-4-yl)pyridazin-4(1H)-one] | 6.00 to 7.00 |
| CC(c1cccc(-c2ncn(C)n2)c1)c1nn(-c2cnn(C)c2)ccc1=O (single isomer, unassigned) [Example 682, 1-(1-methyl-1H-pyrazol-4-yl)-3-{(1S or R)-1-[3-(1-methyl-1H-1,2,4-triazol-3-yl)phenyl]ethyl} pyridazin-4(1H)-one] | 5.52 to 6.00 |
| CCCn1cnc(-c2cccc(C(C)c3nn(-c4cnn(C)c4)ccc3=O)c2)n1 (single isomer, unassigned) [Example 684, 1-(1-methyl-1H-pyrazol-4-yl)-3-{(1S or R)-1-[3-(1-propyl-1H-1,2,4-triazol-3-yl)phenyl]ethyl} pyridazin-4(1H)-one] | 5.52 to 6.00 |
| CCn1cc(-n2ccc(=O)c(C(C)c3cccc(-c4ncn(CC)n4)c3)n2)cn1 (single isomer, unassigned) [Example 686, 1-(1-ethyl-1H-pyrazol-4-yl)-3-{(1S or R)-1-[3-(1-ethyl-1H-1,2,4-triazol-3-yl)phenyl]ethyl} pyridazin-4(1H)-one] | 6.00 to 7.00 |
| CCCn1cnc(-c2cccc(C(C)c3nn(-c4cnn(CC)c4)ccc3=O)c2)n1 (single isomer, unassigned) [Example 688, 1-(1-ethyl-1H-pyrazol-4-yl)-3-{(1S or R)-1-[3-(1-propyl-1H-1,2,4-triazol-3-yl)phenyl]ethyl} pyridazin-4(1H)-one] | 6.00 to 7.00 |
| CC(c1cccc(-c2nccc(C(F)F)n2)c1)c1nn(-c2cnn(C)c2)ccc1=O (single isomer, unassigned) [Example 690, 3-[(1R or S)-1-{3-[4-(Difluoromethyl)pyrimidin-2-yl]phenyl}ethyl]-1-(1-methyl-1H-pyrazol-4-yl)pyridazin-4(1H)-one] | > 7.00 |
| Cc1ccnc(-c2cccc(C(C)c3nn(-c4cnn(C)c4)ccc3=O)c2)n1 (single isomer, unassigned) [Example 691, 1-(1-methyl-1H-pyrazol-4-yl)-3-{(1R or S)-1-[3-(4-methylpyrimidin-2-yl)phenyl]ethyl} pyridazin-4(1H)-one] | > 7.00 |
| CC(c1cccc(-c2ncc(F)c(C3CC3)n2)c1)c1nn(-c2cnn(C)c2)ccc1=O (single isomer, unassigned) [Example 692, 3-{(1R or S)-1-[3-(4-cyclopropyl-5-fluoropyrimidin-2-yl)phenyl]ethyl}-1-(1-methyl-1H-pyrazol-4-yl)pyridazin-4(1H)-one] | > 7.00 |

Other lines, results leading:

| pIC50 | Compound |
| --- | --- |
| > 7.00 | CC(c1cccc(-c2ncc(OC(C)C(C)(C)O)cn2)c1)c1nn(-c2cnn(C)c2)ccc1=O (single isomer, unassigned) [Example 384, 3-{(1R or S)-1-[3-(5-{[(1R or S)-2-hydroxy-1,2-dimethylpropyl]oxy}pyrimidin-2-yl)phenyl]ethyl}-1-(1-methyl-1H-pyrazol-4-yl)pyridazin-4(1H)-one] |
| > 7.00 | CC(c1cccc(-c2ncc(OC(C)C(C)(C)O)cn2)c1)c1nn(-c2cnn(C)c2)ccc1=O (single isomer, unassigned) [Example 385, 3-{(1R or S)-1-[3-(5-{[(1R or S)-2-hydroxy-1,2-dimethylpropyl]oxy}pyrimidin-2-yl)phenyl]ethyl}-1-(1-methyl-1H-pyrazol-4-yl)pyridazin-4(1H)-one] |
| > 7.00 | CC(c1cccc(-c2ncc(C3CC3)cn2)c1)c1nn(-c2cnn(C)c2)ccc1=O (single isomer, unassigned) [Example 405, 3-{(1S or R)-1-[3-(5-cyclopropyl-pyrimidin-2-yl)phenyl]ethyl}-1-(1-methyl-1H-pyrazol-4-yl)pyridazin-4(1H)-one] |
| > 7.00 | CC(c1cccc(-c2ncc(C3CC3)cn2)c1)c1nn(-c2cnn(C)c2)ccc1=O (single isomer, unassigned) [Example 406, 3-{(1R or S)-1-[3-(5-cyclopropyl-pyrimidin-2-yl)phenyl]ethyl}-1-(1-methyl-1H-pyrazol-4-yl)pyridazin-4(1H)-one] |
| > 7.00 | CC1CCC(=O)N1[C@@H](C)COC(=O)Nc1cccc(Cc2nn(-c3cnn(C)c3)ccc2=O)c1 (single isomer, unassigned) [Example 610, (2S)-2-[(2R or S)-2-methyl-5-oxopyrrolidin-1-yl]propyl (3-{[1-(1-methyl-1H-pyrazol-4-yl)-4-oxo-1,4-dihydropyridazin-3-yl]methyl}phenyl)carbamate] |
| > 7.00 | COCCOC(=O)Nc1cccc(C(C)c2nn(-c3cnn(C)c3)ccc2=O)c1 (single isomer, unassigned) [Example 652, 2-methoxyethyl (3-{(1S or R)-1-[1-(1-methyl-1H-pyrazol-4-yl)-4-oxo-1,4-dihydropyridazin-3-yl]ethyl}phenyl)carbamate] |
| > 7.00 | CCOc1cnc(-c2cccc(C(F)c3nn(-c4cnn(C)c4)ccc3=O)c2)nc1 (single isomer, unassigned) [Example 656, 3-[(R or S)-[3-(5-ethoxypyrimidin-2-yl)phenyl](fluoro)methyl]-1-(1-methyl-1H-pyrazol-4-yl)pyridazin-4(1H)-one] |
| > 7.00 | CCn1cnc(-c2cccc(C(C)c3nn(-c4cnn(C)c4)ccc3=O)c2)n1 (single isomer, unassigned) [Example 681, 3-{(1R or S)-1-[3-(1-ethyl-1H-1,2,4-triazol-3-yl)phenyl]ethyl}-1-(1-methyl-1H-pyrazol-4-yl)pyridazin-4(1H)-one] |
| > 7.00 | CC(c1cccc(-c2ncn(C)n2)c1)c1nn(-c2cnn(C)c2)ccc1=O (single isomer, unassigned) [Example 683, 1-(1-methyl-1H-pyrazol-4-yl)-3-{(1R or S)-1-[3-(1-methyl-1H-1,2,4-triazol-3-yl)phenyl]ethyl} pyridazin-4(1H)-one] |
| > 7.00 | CCCn1cnc(-c2cccc(C(C)c3nn(-c4cnn(C)c4)ccc3=O)c2)n1 (single isomer, unassigned) [Example 685, 1-(1-methyl-1H-pyrazol-4-yl)-3-{(1R or S)-1-[3-(1-propyl-1H-1,2,4-triazol-3-yl)phenyl]ethyl} pyridazin-4(1H)-one] |
| > 7.00 | CCn1cc(-n2ccc(=O)c(C(C)c3cccc(-c4ncn(CC)n4)c3)n2)cn1 (single isomer, unassigned) [Example 687, 1-(1-ethyl-1H-pyrazol-4-yl)-3-{(1R or S)-1-[3-(1-ethyl-1H-1,2,4-triazol-3-yl)phenyl]ethyl} pyridazin-4(1H)-one] |
| > 7.00 | CCCn1cnc(-c2cccc(C(C)c3nn(-c4cnn(CC)c4)ccc3=O)c2)n1 (single isomer, unassigned) [Example 689] |
